PubChem BioAssay (NCI)
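In this assay, cells in 96-well plates receive the compound at five concentrations for 48 hours. Endpoints are linearly interpolated between the surrounding concentrations. TGI denotes the concentration required for complete inhibition of growth.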

What was measured:
Assay in all cases: DTP human tumour cell line panel, 48 h
A498 renal = tested on: A498 renal
HCT-15 colon = tested on: HCT-15 colon
HOP-62 NSCLC = tested on: HOP-62 NSCLC
HS 578T breast = tested on: HS 578T breast
HT29 colon = tested on: HT29 colon
M14 melanoma = tested on: M14 melanoma
MDA-MB-435 = tested on: MDA-MB-435
MDA-N = tested on: MDA-N
NCI/ADR-RES ovarian = tested on: NCI/ADR-RES ovarian
RPMI-8226 leukemia = tested on: RPMI-8226 leukemia
SK-MEL-5 melanoma = tested on: SK-MEL-5 melanoma
UACC-257 melanoma = tested on: UACC-257 melanoma

Row | SMILES | TGI (A498 renal) | TGI (HCT-15 colon) | TGI (HOP-62 NSCLC) | TGI (HS 578T breast) | TGI (HT29 colon) | TGI (M14 melanoma) | TGI (MDA-MB-435) | TGI (MDA-N) | TGI (NCI/ADR-RES ovarian) | TGI (RPMI-8226 leukemia) | TGI (SK-MEL-5 melanoma) | TGI (UACC-257 melanoma)
1 | O=C(/C=C\c1ccccc1-c1ccccc1)c1ccccc1 | > 100 µM | > 100 µM | > 100 µM | > 100 µM | > 100 µM | > 100 µM | > 100 µM | > 100 µM | > 100 µM | > 100 µM | > 100 µM | > 100 µM
2 | O=c1[nH]n(Cc2ccccc2CCl)c2ccc([N+](=O)[O-])cc12 | > 100 µM | > 100 µM | > 100 µM | > 100 µM | > 100 µM | > 100 µM | > 100 µM | > 100 µM | > 100 µM | > 100 µM | 30.4 µM | > 100 µM
3 | COc1ccc(-c2cc(-c3ccco3)c(C#N)c(=S)n2C2OC(CO)C(O)C(O)C2O)cc1 (stereo not drawn) | > 100 µM | > 100 µM | > 100 µM | > 100 µM | > 100 µM | > 100 µM | > 100 µM | > 100 µM | > 100 µM | > 100 µM | > 100 µM | > 100 µM
4 | CCCCCNC1=CC(=O)c2ccccc2C1=O | > 76.7 µM | > 100 µM | 43.5 µM | > 81.3 µM | > 100 µM | > 100 µM | > 100 µM | > 100 µM | > 100 µM | > 100 µM | 77.8 µM | > 100 µM
5 | CCn1c(SCC(=O)NNC(=S)Nc2ccc(F)cc2)nc2ccccc2c1=O | > 100 µM | > 100 µM | > 100 µM | > 100 µM | > 100 µM | > 100 µM | > 100 µM | > 100 µM | > 100 µM | > 100 µM | > 100 µM | > 100 µM
6 | Nc1nncs1 | > 5000 µM | 4920 µM | 1700 µM | > 5000 µM | > 3390 µM | > 5000 µM | > 5000 µM | > 5000 µM | > 5000 µM | > 5000 µM | > 5000 µM | > 4200 µM
7 | O=c1c2c3c(sc2nc2n1N=CN(c1ccc(Cl)cc1)C2)CCCC3 | > 100 µM | > 100 µM | > 100 µM | 36.9 µM | > 100 µM | > 100 µM | > 100 µM | > 100 µM | > 100 µM | > 100 µM | > 100 µM | > 100 µM
8 | CC(C)(CCCCC(C)(C)NCC1COc2ccccc2O1)NCC1COc2ccccc2O1 (stereo not drawn) | > 10 µM | > 10 µM | > 10 µM | > 10 µM | 7.08 µM | 3.4 µM | 3.6 µM | 5.66 µM | > 10 µM | > 10 µM | 2.95 µM | 4.1 µM
9 | Cc1ccnc2nc3[nH]c4ccccc4c3cc12 | > 100 µM | > 100 µM | > 100 µM | > 100 µM | > 100 µM | > 100 µM | > 100 µM | > 100 µM | > 100 µM | > 100 µM | > 100 µM | > 100 µM
10 | COC(=O)[C@]12CSC[C@H]1C[C@H](c1ccc(N(C)C)cc1)N2 | > 100 µM | > 100 µM | > 100 µM | > 100 µM | – | > 100 µM | > 100 µM | > 100 µM | > 100 µM | > 31.6 µM | > 100 µM | > 100 µM
11 | CNC(=S)NNC1=NCCCCN1 | > 100 µM | > 100 µM | > 100 µM | > 100 µM | > 100 µM | > 100 µM | > 100 µM | > 100 µM | > 100 µM | > 100 µM | > 100 µM | > 100 µM
12 | COc1cc(C2S/C(=C/c3ccccc3)C(=O)N2c2ccc([N+](=O)[O-])cc2)cc(OC)c1OC (stereo not drawn) | > 100 µM | > 100 µM | > 100 µM | > 100 µM | > 100 µM | > 100 µM | > 100 µM | > 100 µM | > 100 µM | > 100 µM | > 100 µM | > 100 µM
13 | CC1(C)OC(=O)CC12CCN(Cc1ccccc1)CC2 | > 100 µM | > 100 µM | > 100 µM | > 100 µM | > 100 µM | – | > 100 µM | > 100 µM | > 100 µM | > 100 µM | > 100 µM | > 100 µM
14 | COC(=O)/C(C#N)=C(\Nc1ccccc1)N1CCCCC1 | > 100 µM | > 100 µM | > 100 µM | > 100 µM | > 100 µM | > 100 µM | > 100 µM | > 100 µM | > 100 µM | > 100 µM | > 100 µM | > 100 µM
15 | Cc1n[nH]c(=O)n1/N=C/c1cccnc1 | > 100 µM | > 100 µM | > 100 µM | > 100 µM | > 100 µM | > 100 µM | > 100 µM | > 100 µM | > 100 µM | > 100 µM | > 100 µM | > 100 µM
16 | O=c1[nH]c(=O)n(C2CC(O)C(CO)O2)c2nc3ccc4ccccc4c3nc12 (stereo not drawn) | > 100 µM | > 100 µM | 98.3 µM | > 100 µM | – | > 100 µM | > 100 µM | > 100 µM | > 100 µM | 76 µM | > 100 µM | > 100 µM
17 | CCOC(=O)c1c(NC(=O)c2ccc(OC)cc2)sc2c1CCCC2 | > 100 µM | – | > 100 µM | > 100 µM | > 100 µM | > 100 µM | > 100 µM | > 100 µM | > 100 µM | > 100 µM | > 100 µM | > 100 µM
18 | CC1(C)N=C(N)N=C(N)N1c1cccc(OCc2cccc([N+](=O)[O-])c2)c1 | > 100 µM | > 100 µM | > 100 µM | > 100 µM | > 100 µM | > 100 µM | > 100 µM | > 100 µM | > 100 µM | > 100 µM | > 88.7 µM | 48.2 µM
19 | C/C(=N/NC(=S)N1CCCC1)c1cccc(/C(C)=N\NC(=S)N2CCCC2)n1 | 2.59 µM | 4.96 µM | 0.891 µM | 25.2 µM | 5.1 µM | 2.56 µM | 3.13 µM | 3.89 µM | 7.62 µM | 18.1 µM | 2.69 µM | –
